Measurements as given in paper PMC8328489, “Automated Synthesis and Initial Evaluation of (4′-Amino-5′,8′-difluoro-1′H-spiro[piperidine-4,2′-quinazolin]-1-yl)(4-[^18F]fluorophenyl)methanone for PET/MR Imaging of Inducible Nitric Oxide Synthase” (Molecular Imaging, 2021).

What was measured:
[1] = Radiolabeled metabolites in blood plasma (radio-HPLC); type: in vivo, Sprague-Dawley rats; conditions: rat, i.v.
Protocol: Adult Sprague-Dawley rats (n = 3) were anesthetized with 2% isoflurane (in oxygen) and injected with 194.87 MBq ± 22.61 MBq of [^18F]FBAT in the tail vein. Plasma was extracted from heparinized blood samples (0.25 mL) with 3x volumes of acetonitrile and analyzed with radio-HPLC; mobile phase: 40% MeCN/0.10% TEA in water at 1 mL/min. This method affords retention time of [^18F]FBAT which was 18.1–18.9 min. Fractions of [^18F]FBAT and metabolites were calculated for each sample based on the area under each peak. The radioactivity concentration in the whole blood and plasma was assayed using a gamma counter (Cobra, Packard, CT).

[2] = Log P measurement (1-octanol/phosphate buffer, UV); type: physicochemical; conditions: 1-octanol / 0.02 M phosphate buffer; 1-octanol / phosphate buffer pH 7.4
Protocol: The partition coefficient of FBAT, determined between 1-octanol and 0.02 M phosphate buffer at pH 7.4, was measured by UV spectrophotometer (SPARK 10 M from Tecan) at wavelength 230 nm.

[3] = system: murine microglial BV2 cells; test: In vitro [^18F]FBAT uptake assay; type: cell-based
Protocol: BV2 cells were cultured as described above, washed three times with fresh medium, pretreated with a selective iNOS inhibitor, aminoguanidine (AMG), (0, 1, or 0.1 mM) for 1 h, and then treated with cell culture media containing LPS and the inhibitor. At the indicated time points, the cells were washed thrice with fresh cell culture media, then incubated in fresh cell culture media continuing the radiotracer [^18F]FBAT at 0.37 MBq/mL for 15, 30, or 60 min, harvested by gentle scraping, and pelleted by centrifugation at 1500 g for 2 min. The weight of the cell pellet and 0.1 mL of the radioactive supernatant was determined. A Packard 5500 gamma counter (PerkinElmer, Billerica, MA, USA) was used to quantify radioactivity as cpm/g cells or cpm/mL media, respectively. Cell-to-medium radioactivity concentration ratios were calculated and plotted over time to evaluate the kinetics of accumulation of the radiotracer.
iNOS is the enzyme responsible for NO generation in BV2 cells; therefore, accumulation of [^18F]FBAT in BV2 cells before or after iNOS inhibitor versus NO production was also assessed.

NC1=NC2(CCN(C(=O)c3ccc([18F])cc3)CC2)Nc2c(F)ccc(F)c21 [[^18F]FBAT, (4′-amino-5′,8′-difluoro-1′H-spiro[piperidine-4,2′-quinazolin]-1-yl)(4-[^18F]fluorophenyl)methanone]
metabolites fraction in plasma ([1]; 120 min after injection): ~94.02%
parent compound fraction in plasma ([1]; first 5 minutes): 77.98%
logP [2]: 1.4
[^18F]FBAT accumulation, LPS-induced vs control BV2 cells ([3]; 60 min): more than 1.7 fold
cells-per-medium concentration ratio at plateau ([3]; LPS-induced BV2 cells, after 1 h): 180–200
cells-per-medium concentration ratio at plateau ([3]; control BV2 cells): ~100
